Measured values taken from patent US11331299B2, “Medicinal use of serrulatane diterpenes” (The University of Sydney, priority 2016, dated 2022).
“And” between values parts separate entries of the source, which are not always exact repeats. Identical values can stand only once.

Experiments:
[1] = molecular target: T1, PB1(3) (h) bromodomain (Homo sapiens, UniProt Q86U86); experiment: Epigenetic binding assay, Bromodomain; conditions: read-out: % Inhibition of Control Specific Binding
T1 construct: Bromodomain
T1 sequence (Q86U86 381-487 limits assumed): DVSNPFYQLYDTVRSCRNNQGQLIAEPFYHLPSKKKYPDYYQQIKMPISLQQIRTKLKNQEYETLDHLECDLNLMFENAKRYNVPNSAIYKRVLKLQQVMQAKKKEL

[2] = molecular target: T2, PB1(4) (h) bromodomain (Homo sapiens, UniProt Q86U86); experiment: Epigenetic binding assay, Bromodomain; conditions: 10 μM; read-out: % Inhibition of Control Specific Binding
T2 construct: Bromodomain
T2 sequence (Q86U86 518-625 limits assumed): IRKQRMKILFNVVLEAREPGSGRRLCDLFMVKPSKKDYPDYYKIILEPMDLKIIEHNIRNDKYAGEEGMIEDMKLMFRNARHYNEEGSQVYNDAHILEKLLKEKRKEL

[3] = molecular target: T3, SP140 (h) bromodomain (Homo sapiens, UniProt Q13342); experiment: Epigenetic binding assay, Bromodomain; design: inhibition of binding, 1st / inhibition of binding, 2nd / inhibition of binding, Mean: unit: %; conditions: for inhibition at 10 µM: read-out: % Inhibition of Control Specific Binding
T3 construct: SP140 (h) bromodomain
T3 sequence (Q13342 754-857 limits assumed): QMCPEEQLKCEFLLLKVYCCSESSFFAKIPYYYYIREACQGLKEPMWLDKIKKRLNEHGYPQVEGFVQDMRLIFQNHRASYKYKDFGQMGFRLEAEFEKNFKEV

[4] = molecular target: T4, SMARCA2 (h) bromodomain (Homo sapiens, UniProt P51531); experiment: Epigenetic binding assay, Bromodomain; conditions: for inhibition at 10 µM: read-out: % Inhibition of Control Specific Binding
T4 construct: Bromodomain
T4 sequence (P51531 1378-1506 limits assumed): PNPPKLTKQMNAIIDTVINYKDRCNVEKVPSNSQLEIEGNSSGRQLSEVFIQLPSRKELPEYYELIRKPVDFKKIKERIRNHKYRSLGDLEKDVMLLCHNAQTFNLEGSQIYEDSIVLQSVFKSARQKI

[5] = molecular target: EZH1/EED/SUZ12 (h) (Homo sapiens, UniProt Q92800); experiment: Epigenetic enzyme assay, Methyltransferases (MTs); assay type: biochemical; conditions: read-out: % Inhibition of Control Values
Chain of EZH1/EED/SUZ12 (h) (Q92800 whole entry): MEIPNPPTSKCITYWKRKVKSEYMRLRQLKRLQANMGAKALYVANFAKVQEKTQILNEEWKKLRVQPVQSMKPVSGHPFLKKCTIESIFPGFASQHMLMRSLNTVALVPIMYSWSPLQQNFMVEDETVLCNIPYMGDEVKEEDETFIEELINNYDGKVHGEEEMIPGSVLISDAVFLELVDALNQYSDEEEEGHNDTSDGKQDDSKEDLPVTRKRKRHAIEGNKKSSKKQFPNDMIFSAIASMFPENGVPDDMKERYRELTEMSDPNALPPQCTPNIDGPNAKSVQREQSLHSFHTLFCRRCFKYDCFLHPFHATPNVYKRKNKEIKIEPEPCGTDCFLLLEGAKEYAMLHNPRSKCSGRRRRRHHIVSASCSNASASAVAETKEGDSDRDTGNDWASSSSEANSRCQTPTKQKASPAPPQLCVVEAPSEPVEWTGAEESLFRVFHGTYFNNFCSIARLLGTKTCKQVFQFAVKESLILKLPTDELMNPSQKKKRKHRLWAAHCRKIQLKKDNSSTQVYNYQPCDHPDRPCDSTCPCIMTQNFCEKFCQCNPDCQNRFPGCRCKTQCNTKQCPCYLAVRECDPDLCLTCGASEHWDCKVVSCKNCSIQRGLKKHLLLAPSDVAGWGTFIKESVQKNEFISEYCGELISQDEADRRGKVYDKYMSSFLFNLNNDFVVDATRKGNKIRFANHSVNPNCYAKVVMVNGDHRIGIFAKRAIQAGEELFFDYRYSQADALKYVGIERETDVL
Chain of EZH1/EED/SUZ12 (h) (O75530 whole entry partner): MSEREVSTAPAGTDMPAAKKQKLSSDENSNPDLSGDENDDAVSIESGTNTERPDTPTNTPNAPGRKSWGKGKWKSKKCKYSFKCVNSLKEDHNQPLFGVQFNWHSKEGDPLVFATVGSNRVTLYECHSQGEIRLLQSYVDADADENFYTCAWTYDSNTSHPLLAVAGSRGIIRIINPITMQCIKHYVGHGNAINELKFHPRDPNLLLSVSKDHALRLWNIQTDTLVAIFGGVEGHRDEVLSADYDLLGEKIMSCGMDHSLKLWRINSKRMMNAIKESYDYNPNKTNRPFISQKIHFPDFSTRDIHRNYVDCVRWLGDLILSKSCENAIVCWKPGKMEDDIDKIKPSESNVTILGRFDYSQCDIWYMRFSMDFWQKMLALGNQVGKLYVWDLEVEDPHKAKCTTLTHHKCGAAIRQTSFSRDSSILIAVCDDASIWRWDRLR
Chain of EZH1/EED/SUZ12 (h) (Q15022 whole entry partner): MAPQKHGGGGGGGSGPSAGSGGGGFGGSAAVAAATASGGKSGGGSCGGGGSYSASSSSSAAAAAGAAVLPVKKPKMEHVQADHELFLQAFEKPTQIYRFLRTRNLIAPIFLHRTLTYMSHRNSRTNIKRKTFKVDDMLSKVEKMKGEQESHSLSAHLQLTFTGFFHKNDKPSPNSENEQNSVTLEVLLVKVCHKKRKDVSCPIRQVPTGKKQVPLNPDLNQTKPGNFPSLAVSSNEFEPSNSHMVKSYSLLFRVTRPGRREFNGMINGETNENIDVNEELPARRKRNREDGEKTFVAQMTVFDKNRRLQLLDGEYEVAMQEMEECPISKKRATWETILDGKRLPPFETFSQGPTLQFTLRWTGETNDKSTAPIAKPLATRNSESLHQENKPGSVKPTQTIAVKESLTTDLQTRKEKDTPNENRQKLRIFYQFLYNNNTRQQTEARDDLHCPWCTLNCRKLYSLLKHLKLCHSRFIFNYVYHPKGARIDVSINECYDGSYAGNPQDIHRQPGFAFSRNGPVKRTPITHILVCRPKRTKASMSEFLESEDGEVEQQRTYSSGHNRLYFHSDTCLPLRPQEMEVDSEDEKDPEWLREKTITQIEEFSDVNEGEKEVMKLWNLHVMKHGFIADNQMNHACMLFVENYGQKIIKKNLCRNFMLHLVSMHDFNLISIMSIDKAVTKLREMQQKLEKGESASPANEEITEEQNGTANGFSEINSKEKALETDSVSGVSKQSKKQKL

[6] = molecular target: T5, Nicotinamide N-methyltransferase (h) (Homo sapiens, UniProt P40261); experiment: Epigenetic enzyme assay, Small molecule methyltransferases; assay type: biochemical; conditions: read-out: % Inhibition of Control Values
T5 sequence (P40261 1-264): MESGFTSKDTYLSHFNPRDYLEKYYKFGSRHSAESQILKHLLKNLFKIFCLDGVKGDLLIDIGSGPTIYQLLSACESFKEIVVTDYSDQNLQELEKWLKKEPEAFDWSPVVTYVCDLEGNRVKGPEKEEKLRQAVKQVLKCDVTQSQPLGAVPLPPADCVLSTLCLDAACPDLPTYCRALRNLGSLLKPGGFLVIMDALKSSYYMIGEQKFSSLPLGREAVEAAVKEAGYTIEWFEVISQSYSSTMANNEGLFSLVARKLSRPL

[7] = molecular target: T6, Monoamine Oxidase MAO-A (Homo sapiens, UniProt P21397); experiment: Monoamine Oxidase MAO-A; assay type: biochemical; conditions: for remaining activity at 10 µM: read-out: % Control Response
T6 construct: host or cells: Insect Hi5 cells
T6 sequence (P21397 1-527): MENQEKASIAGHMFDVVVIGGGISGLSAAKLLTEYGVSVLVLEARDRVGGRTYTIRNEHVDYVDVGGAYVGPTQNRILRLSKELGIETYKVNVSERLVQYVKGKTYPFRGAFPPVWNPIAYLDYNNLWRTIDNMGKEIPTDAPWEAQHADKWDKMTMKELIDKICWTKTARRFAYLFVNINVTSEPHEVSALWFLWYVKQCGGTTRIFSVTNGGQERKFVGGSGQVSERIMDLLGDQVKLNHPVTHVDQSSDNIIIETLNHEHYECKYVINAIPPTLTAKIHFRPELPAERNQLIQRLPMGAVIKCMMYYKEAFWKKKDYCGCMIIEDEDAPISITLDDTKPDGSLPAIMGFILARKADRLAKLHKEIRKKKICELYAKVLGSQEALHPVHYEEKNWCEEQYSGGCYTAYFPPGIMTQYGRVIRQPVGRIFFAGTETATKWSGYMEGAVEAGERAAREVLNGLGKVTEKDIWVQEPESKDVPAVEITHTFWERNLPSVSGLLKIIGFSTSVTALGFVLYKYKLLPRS

[8] = molecular target: T7, Phospholipase sPLA2-V (Homo sapiens, UniProt P39877); experiment: Phospholipase sPLA2-V; assay type: biochemical; conditions: assay year 2015, read-out: % Control Response
T7 construct: host or cells: E. coli
T7 sequence (P39877 21-138): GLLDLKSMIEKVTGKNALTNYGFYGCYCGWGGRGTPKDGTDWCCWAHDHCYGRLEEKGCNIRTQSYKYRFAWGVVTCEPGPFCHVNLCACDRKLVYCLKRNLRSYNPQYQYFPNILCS
Procedure: The in vitro pharmacological studies were conducted by Eurofins PanLab (Taiwan) using the parameters shown in Table 13 with respect to appropriate literature references.

[9] = system: HUVEC endothelium cells (normal cell line); experiment: In vitro cell viability assay (intracellular ATP, 72 hour); assay type: cell-based; conditions: 10 μM; for % Cell growth: HUVEC, Endothelium (Normal)
[10] = molecular target: CYP2D6 (Homo sapiens, UniProt P10635); experiment: in vitro; conditions: human liver microsomes, probe dextromethorphan
Chain of CYP2D6 (P10635 whole entry): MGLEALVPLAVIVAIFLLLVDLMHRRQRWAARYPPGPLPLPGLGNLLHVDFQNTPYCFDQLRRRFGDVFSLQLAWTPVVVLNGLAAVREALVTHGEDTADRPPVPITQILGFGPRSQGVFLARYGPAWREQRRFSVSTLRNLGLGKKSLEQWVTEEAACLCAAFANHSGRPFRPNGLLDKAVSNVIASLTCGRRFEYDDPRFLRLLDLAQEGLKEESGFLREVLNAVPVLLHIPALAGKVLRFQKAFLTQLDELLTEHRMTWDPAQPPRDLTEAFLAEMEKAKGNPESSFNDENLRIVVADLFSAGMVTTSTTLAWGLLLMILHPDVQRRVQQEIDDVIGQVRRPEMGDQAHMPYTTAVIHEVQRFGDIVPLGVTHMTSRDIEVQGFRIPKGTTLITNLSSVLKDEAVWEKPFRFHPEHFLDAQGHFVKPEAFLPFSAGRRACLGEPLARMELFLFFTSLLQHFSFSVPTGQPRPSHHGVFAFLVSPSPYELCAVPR

| Compound | inhibition at 10 µM [1] | inhibition at 10 µM [2] | inhibition at 10 µM ([3]; 10 μM) | inhibition at 10 µM [4] | inhibition at 10 µM [5] | inhibition at 10 µM [6] | remaining activity at 10 µM ([7]; 10 μM, assay year 2015) | remaining activity at 10 µM [8] | % Cell growth [9] | inhibition at 1 µM [10] | inhibition at 10 µM [10] | also measured |
| --- | --- | --- | --- | --- | --- | --- | --- | --- | --- | --- | --- | --- |
| CC(C)=CCC[C@H](CO)[C@@H]1CC[C@@H](C)c2c1cc(C)c(O)c2O [Compound 1, 7,8,18-trihydroxyserrulat-14-ene] | 38% | 41% | 84% | 83% | -1% | 13% | 91% | 4% | −90% | 12 to 21% | 45% | % Inhibition of Control Specific Binding ([3]; 10 μM): significant inhibitory activity; inhibition of binding, 1st ([3]; 3.0E−05M): 102.3; inhibition of binding, 2nd ([3]; 3.0E−05M): 102.3; inhibition of binding, Mean ([3]; 3.0E−05M): 102.3; inhibition of binding, 1st ([3]; 3.0E−06M): 8.4; inhibition of binding, 2nd ([3]; 3.0E−06M): 11.3; inhibition of binding, Mean ([3]; 3.0E−06M): 9.9; inhibition of binding, 1st ([3]; 3.0E−07M): −14.1; inhibition of binding, 2nd ([3]; 3.0E−07M): −11.0; inhibition of binding, Mean ([3]; 3.0E−07M): −12.6; inhibition of binding, 1st ([3]; 3.0E−08M): −9.7; inhibition of binding, 2nd ([3]; 3.0E−08M): −14.6; inhibition of binding, Mean ([3]; 3.0E−08M): −12.1; inhibition of binding, 1st ([3]; 3.0E−09M): −6.0; inhibition of binding, 2nd ([3]; 3.0E−09M): −8.6; inhibition of binding, Mean ([3]; 3.0E−09M): −7.3; IC50 ([3]; Table 9, inhibition/concentration-response curve, read-out: IC50): 3.8 µM; % Inhibition of Control Specific Binding ([4]; 10 μM): significant inhibitory activity; % Control Response ([7]; 10 μM, assay year 2015): potent inhibitor; IC50 ([7]; concentration-response 10 to 0.01 μM): 6.47 µM and 6.74 µM |
| CC(C)=CCC[C@@H]1C(O)Oc2c(C)cc(O)c3c2[C@H]1CC[C@H]3C (stereo partly shown) [Compound 2, 5,18-epoxyserrulat-14-en-8,18-diol] | 13% | -3% | 43% | 21% | 3% | -2% | 34% | 3% | 97% | 12 to 21% | 44% |  |
| CC(C)=CCC[C@@H]1COc2c(C)cc(O)c3c2[C@H]1CC[C@H]3C [Compound 3, 5,18-epoxy-8-hydroxyserrulat-14-ene] | 6% | 16% | 1% | 18% | -12% | -2% | 27% | 0% | 91% |  |  |  |
| CC(C)=CCC[C@H](C)[C@@H]1CC[C@@H](C)c2c1cc(C)c(O)c2O [Compound 4, 7,8-dihydroxyserrulat-14-ene] |  |  |  |  |  |  |  |  | 37% | 12 to 21% | 45% | reduction in the growth [9]: no significant reduction |
